{"source": "patent US20100311581A1", "about": "“Azolylmethyloxiranes, use Thereof and Agents Containing the Same” (BASF SE, priority 2007, published 2010)", "key": {"Septoria tritici": {"tested_on": "Septoria tritici", "test": "Activity against Septoria leaf blotch Septoria tritici in the microtiter test (Septtr)", "assay_type": "cell-based"}, "Pyriculana oryzae": {"tested_on": "Pyriculana oryzae", "assay_type": "cell-based"}, "Phakopsora pachyrhizi": {"tested_on": "Phakopsora pachyrhizi", "test": "Curative activity against soya rust caused by Phakopsora pachyrhizi (Phakpa K1), greenhouse", "assay_type": "in vivo", "settings": "curative spray on soya seedlings, visual rating after 14 days in greenhouse, untreated 90% attack"}, "Leptosphaeria nodorum": {"tested_on": "Leptosphaeria nodorum", "test": "Activity against glume blotch Leptosphaeria nodorum in the microtiter test (Leptno)", "assay_type": "cell-based"}, "[1]": {"settings": "Comparison tests, microtiter test"}, "[2]": {"settings": "microtiter plate, 7th day after inoculation, 405 nm, relative to active compound-free control (100%)"}, "[3]": {"settings": "31 ppm, microtiter plate, seventh day after inoculation, 405 nm, relative to active compound-free control (=100%)"}, "[4]": {"settings": "Comparison tests, 31 ppm, microtiter test"}}, "note": "Like-named read-outs stand apart in the source and are kept apart here."}
{"smiles": "Fc1ccccc1[C@@]1(Cn2nc[nH]c2=S)O[C@@H]1c1ccccc1Cl", "values": [{"measurement": "Growth in % at 31 ppm with Septtr", "setting": "Septoria tritici; [1]", "result": 58, "unit": "%"}]}
{"smiles": "Fc1cccc([C@@]2(Cn3nc[nH]c3=S)O[C@@H]2c2ccccc2Cl)c1", "note": "(relative stereo) [Example 1, 1-[rel-(2S,3R)-3-(2-chlorophenyl)-2-(3-fluorophenyl)oxiran-2-ylmethyl]-1H-1,2,4-triazole-5(4H)-thione]", "values": [{"measurement": "Growth in % at 31 ppm with Septtr", "setting": "Septoria tritici; [1]", "result": 21, "unit": "%"}, {"measurement": "Growth in % at 31 ppm with Septtr", "setting": "Septoria tritici; [2]", "result": 21, "unit": "%"}]}
{"smiles": "Cc1ccccc1[C@H]1O[C@]1(Cn1nc[nH]c1=S)c1cccc(F)c1", "note": "(relative stereo) [Example 3, 1-[rel-(2S,3R)-2-(3-fluorophenyl)-3-o-tolyloxiran-2-ylmethyl]-1H-1,2,4-triazole-5(4H)-thione]", "values": [{"measurement": "Growth in % at 31 ppm with Septtr", "setting": "Septoria tritici; [2]", "result": 11, "unit": "%"}]}
{"smiles": "CSc1ncnn1C[C@]1(c2cccc(F)c2)O[C@@H]1c1ccccc1F", "note": "(relative stereo) [Example 4, 1-[rel-(2S,3R)-3-(2-fluorophenyl)-2-(3-fluorophenyl)oxiran-2-ylmethyl]-5-(methylthio)-1H-1,2,4-triazole]", "values": [{"measurement": "Growth in % at 31 ppm with Pyrior", "setting": "Pyriculana oryzae; [3]", "result": 0, "unit": "%"}, {"measurement": "Growth in % at 31 ppm with Pyrior", "setting": "Pyriculana oryzae; [4]", "result": 0, "unit": "%"}]}
{"smiles": "CSc1ncnn1C[C@]1(c2cccc(F)c2)O[C@@H]1c1ccccc1C", "note": "(relative stereo) [Example 5, 1-rel-[(2S,3R)-2-(3-fluorophenyl)-3-o-tolyloxiran-2-ylmethyl]-5-(methylthio)-1H-1,2,4-triazole]", "values": [{"measurement": "Growth in % at 31 ppm with Pyrior", "setting": "Pyriculana oryzae; [3]", "result": 0, "unit": "%"}]}
{"smiles": "CSc1ncnn1C[C@]1(c2cccc(F)c2)O[C@@H]1c1ccccc1Cl", "note": "(relative stereo) [Example 6, 1-[rel-(2S,3R)-3-(2-chlorophenyl)-2-(3-fluorophenyl)oxiran-2-ylmethyl]-5-(methylthio)-1H-1,2,4-triazole]", "values": [{"measurement": "Attack in % at 600 ppm with Phakpa K1", "setting": "Phakopsora pachyrhizi", "result": 0, "unit": "%"}]}
{"smiles": "N#CSc1ncnn1C[C@]1(c2cccc(F)c2)O[C@@H]1c1ccccc1Cl", "note": "(relative stereo) [Example 9, 1-[rel-(2S,3R)-3-(2-chlorophenyl)-2-(3-fluorophenyl)oxiran-2-ylmethyl]-5-thiocyanato-1H-1,2,4-triazole]", "values": [{"measurement": "Growth in % at 31 ppm with Septtr", "setting": "Septoria tritici; [2]", "result": 49, "unit": "%"}]}
{"smiles": "CCOP(=S)(OCC)Sc1ncnn1C[C@]1(c2cccc(F)c2)O[C@@H]1c1ccccc1Cl", "note": "(relative stereo) [Example 10, S-1-[rel-(2S,3R)-3-(2-chlorophenyl)-2-(3-fluorophenyl)oxiran-2-ylmethyl]-1H-1,2,4-triazole-5-yl O,O-diethyl phosphorodithioate]", "values": [{"measurement": "Growth in % at 31 ppm with Pyrior", "setting": "Pyriculana oryzae", "result": 0, "unit": "%"}]}
{"smiles": "COC(=O)Sc1ncnn1C[C@]1(c2cccc(F)c2)O[C@@H]1c1ccccc1Cl", "note": "(relative stereo) [Example 12, methyl {2-[rel-(2S,3R)-3-(2-chlorophenyl)-2-(3-fluorophenyl)-oxiranylmethyl]-2H-[1,2,4]triazole-3-yl}thiocarbonate]", "values": [{"measurement": "Growth in % at 31 ppm with Leptno", "setting": "Leptosphaeria nodorum; [1]", "result": 0, "unit": "%"}, {"measurement": "Growth in % at 31 ppm with Leptno", "setting": "Leptosphaeria nodorum; microtiter plate, 7th day after inoculation, 405 nm, relative to active compound-free control", "result": 0, "unit": "%"}, {"measurement": "Growth in % at 31 ppm with Septtr", "setting": "Septoria tritici; [1]", "result": 25, "unit": "%"}]}
{"smiles": "CSc1ncnn1C[C@]1(c2ccc(F)cc2)O[C@@H]1c1ccccc1F", "note": "[WO9638440, p. 17 (4th compound),]", "values": [{"measurement": "Growth in % at 31 ppm with Pyrior", "setting": "Pyriculana oryzae; [4]", "result": 100, "unit": "%"}]}
{"smiles": "COC(=O)Sc1ncnn1CC1(c2ccc(F)cc2)OC1c1ccccc1Cl", "note": "(stereo not shown) [WO9742178, p. 55 (4th compound)]", "values": [{"measurement": "Growth in % at 31 ppm with Leptno", "setting": "Leptosphaeria nodorum; [1]", "result": 100, "unit": "%"}, {"measurement": "Growth in % at 31 ppm with Septtr", "setting": "Septoria tritici; [1]", "result": 100, "unit": "%"}]}
